Measured values: patent publication US20260345723A1, “Treatments for Opioid-Induced Respiratory Depression” (priority 2023, published 2026)

Key:
CCR2 [1] = details: selective CCR2 receptor antagonists, mice; cited from earlier work
CCR5 [2] = details: CCR5 antagonist, rats; cited from earlier work
CCR5 [3] = details: cited from earlier work
CCR2 [4] = details: pretreatment with CCR2 antagonist; cited from earlier work
CXCR4 [5] = details: cited from earlier work
[6] = test system: morphine-induced respiratory depression; details: rat, in vivo
CCR2 [7] = details: rat, in vivo
GFAP mRNA = details: rat, in vivo
CCR5 [8] = details: rat, in vivo
[9] = test system: mu-opioid receptor (OPRM1); details: rat, in vivo
CXCR4 [10] = details: rat, in vivo
IBA1 mRNA = details: rat, in vivo
tolerance to morphine = details: in vivo; cited from earlier work
chemokine release = details: cited from earlier work
CXCR4 [11] = details: pretreatment, hypoxic neonatal rats; cited from earlier work

Cc1ccc2c(c1)C1(CCN(CCc3nc(-c4ccccc4)oc3C)CC1)OC(=O)N2 [RS504393]
methamphetamine-induced place conditioning (CCR2 [1]): reduce

maraviroc
locomotor-activating effects of cocaine (CCR5 [2]): reduce
rewarding efficacy of cocaine (CCR5 [2]): reduce
HIV entry into cells that express CCR5 (CCR5 [3]): inhibits the entry

O=C1Nc2ccccc2C2(CCN(CCc3ccc(C(F)(F)F)cc3)CC2)O1 [RS-102895]
inflammation caused by CCL2 (CCR2 [4]): inhibited

c1cc(CN2CCCNCCNCCCNCC2)ccc1CN1CCCNCCNCCCNCC1 [AMD3100]
CXCR4 antagonism (CXCR4 [5]): antagonist of CXCR4
mobilization of hematopoietic stem cells (CXCR4 [5]): mobilize hematopoietic stem cells

CN1CC[C@]23c4c5ccc(O)c4O[C@H]2[C@@H](O)C=C[C@H]3[C@H]1C5 [morphine, reference compound]
SpO2 (oxygen saturation) [6]: under 90%
cumulative SpO2 [6]: significantly reduced SpO2
cumulative respiratory rate [6]: significantly increased respiratory rate
CCR2 protein levels, NAC (CCR2 [7]): significantly reduced CCR2 protein levels
CCR2 protein levels, PFC (CCR2 [7]): significantly enhanced CCR2 protein levels
CCR2 protein levels, VTA (CCR2 [7]): significantly enhanced CCR2 protein levels
GFAP mRNA levels, NAC (GFAP mRNA): significantly enhanced
GFAP mRNA levels, VTA and PFC (GFAP mRNA): no significant changes were detected
CCR5 protein levels, NAC (CCR5 [8]): significantly reduced CCR5 protein levels
CCR5 protein levels, VTA (CCR5 [8]): did not significantly change
OPRM1 protein levels, VTA [9]: significantly increased OPRM1 protein levels
CXCR4 protein levels, VTA (CXCR4 [10]): significantly enhanced CXCR4 protein levels
microglial gene expression, VTA, NAC, PFC (IBA1 mRNA): not altered

CN(C)c1ccc(O)c2c1C[C@H]1C[C@H]3[C@H](N(C)C)C(O)=C(C(N)=O)C(=O)[C@@]3(O)C(O)=C1C2=O [minocycline]
tolerance to morphine (tolerance to morphine): attenuates tolerance to morphine
chemokine release (chemokine release): inhibits chemokine release

COc1ccc(C2(O)CCC(N3CC[C@@H](NC(=O)CNC(=O)c4cccc(C(F)(F)F)c4)C3)CC2)cn1 (stereo partly shown) [INCB 3284]
methamphetamine-induced place conditioning (CCR2 [1]): reduce

dexamethasone
CXCR4 receptors (CXCR4 [11]): downregulates CXCR4 receptors
neuroprotection (CXCR4 [11]): induces neuroprotection
